Experimental findings from patent US20170368119A1, “METHODS AND COMPOSITIONS FOR TREATING C-MET ASSOCIATED CANCERS” (YEASTERN BIOTECH CO., LTD, priority 2014, published 2017) are described below.

Series [1] relates to HCC329. The series is described as follows: cell proliferation assay (doubling time), HCC329. Conditions: 0.5, 1.0 and 2.0 μg/ml, dose dependent, 72 hours, untreated = 100%. It counts as cell-based, human. The procedure: (§1) The most motile HCC cell lines identified in Example 2, namely HCC372 and HCC329, were employed for testing the molecular and cellular effects of FIP-gts on HCC, in comparison with those of JNJ-38877605 (abbreviated hereafter as JNJ), which is an ATP-competitive inhibitor for the catalytic activity of c-Met. In the cell proliferation assay, HCC329 and HCC372 cells were untreated or treated with FIP-gts (prepared in Example 4) at 0.5, 1.0 or 2.0 μg/ml for 72 hours. Cell numbers were counted, and the relative doubling times of the respective treated groups were determined by taking the data of the untreated group as 100%. The wound healing migration assay was repeated as described in Example 2, except that HCC329 and HCC372 were additionally treated with FIP-gts and JNJ (MedKoo Biosciences, Chapel Hill, N.C., USA), respectively, for 48 hours. Relative migration was analyzed quantitatively by taking the motility of untreated cells (Con) as 1.0. The results were shown in FIGS. 3A and 3B, in which the symbols (**), (*) and (#) represent statistical significance (p<0.005 and p<0.05, respectively, n=3) between the indicated inhibitor-treated samples and untreated HCC329 or HCC372 control group.

Series [2] has as its system HCC372. As to the kind of experiment: cell proliferation assay (doubling time), HCC372. Conditions: 0.5, 1.0 and 2.0 μg/ml, dose dependent, 72 hours, untreated = 100%. The series is classed as cell-based, human. The procedure:
as §1

Series [3] concerns HCC372. As to the kind of experiment: wound healing migration assay, HCC372. The conditions noted are these: FIP-gts 2.0 μg/ml, 48 hours. It counts as cell-based, human. The procedure:
(§2) The HCC cells were cultivated on 24-well plates accompanied with a wound healing culture insert until confluence followed by serum starvation of the cells for 24 hours and the culture insert were then removed. After appropriate treatments, pictures were taken under a phase contrast microscope at indicated times. Quantitative analysis of motility of the HCC cell lines described in Example 1 was performed by directly counting the cells migrating into the blanking area at 48 hours using Image J. Software available from the NIH website. In general, motilities of the mesenchymal HCCs were higher than those of the epithelial ones.
The most motile HCC cell lines identified in Example 2, namely HCC372 and HCC329, were employed for testing the molecular and cellular effects of FIP-gts on HCC, in comparison with those of JNJ-38877605 (abbreviated hereafter as JNJ), which is an ATP-competitive inhibitor for the catalytic activity of c-Met. In the cell proliferation assay, HCC329 and HCC372 cells were untreated or treated with FIP-gts (prepared in Example 4) at 0.5, 1.0 or 2.0 μg/ml for 72 hours. Cell numbers were counted, and the relative doubling times of the respective treated groups were determined by taking the data of the untreated group as 100%. […] Relative migration was analyzed quantitatively by taking the motility of untreated cells (Con) as 1.0. […]

The subject of series [4] is HCC329. As to the kind of experiment: wound healing migration assay, HCC329. The series is classed as cell-based, human. The conditions noted are these: FIP-gts, 48 hours. The procedure: The HCC cells were cultivated on 24-well plates accompanied with a wound healing culture insert until confluence followed by serum starvation of the cells for 24 hours and the culture insert were then removed. After appropriate treatments, pictures were taken under a phase contrast microscope at indicated times.
Cell numbers were counted, and the relative doubling times of the respective treated groups were determined by taking the data of the untreated group as 100%. […] Relative migration was analyzed quantitatively by taking the motility of untreated cells (Con) as 1.0.

Series [5] concerns HepG2. As to the kind of experiment: wound healing migration assay, HGF-induced HepG2. It counts as cell-based, human. The conditions noted are these: 25 nM HGF, FIP-gts 2.0 μg/ml versus JNJ 26.5 nM, 48 hours. The procedure: as §2
In a separate experiment, human hepatoma cell line HepG2, a non-motile HCC cell line conventionally used for observing HGF-inducible molecular and cellular effects, was employed. In this experiment, the wound healing migration assay described in Example 2 was again repeated, except that HepG2 (purchased from Bioresource Collection and Research Center (BCRC), Hsinchu, Taiwan) was treated with FIP-gts or JNJ-38877605 for 48 hours in the presence or absence of 25 nM HGF (PeproTech Inc., Rocky Hill, N.J., USA). Relative migration was quantitatively analyzed taking the motility of untreated cells (Con) as 1.0. […]

The subject of series [6] is HCC329. The series is described as follows: HCC329 tumor development and metastasis in SCID mice model. It counts as in vivo. The conditions noted are these: FIP-gts 4.0-20 μg/g mouse, intraperitoneal twice a week, 2 months. The procedure:
HCC329 cells (approximately 2×10^7) suspended in 100 μl Dulbecco's Modified Eagle Medium (DMEM; Gibco, Grand Island, N.Y., USA) were directly injected into the subserosa of the middle liver lobe of the SCID mice, followed by intraperitoneal administration twice a week with DMEM as a vehicle, vehicle-containing FIP-gts (4.0-20 μg/g mouse) or JNJ (0.5-2.0 nmole/g mouse).
The mice were sacrificed 2 months after injection. Tumor mass was measured and the occurrence of intrahepatic metastasis and/or extrahepatic metastasis was recorded. Nodules with diameter of more than 0.1-0.2 cm observed on the left or right lobes were recognized as secondary tumor foci. […] Extra-hepatic metastasis was defined to be the case where the tumors appearing in organs other than liver such as in intestine. During the animal experiment, the regulations relevant to the care and use of laboratory animals were followed. This was approved by the Institutional Animal Care and Use Committee (IACUC) in Tzu Chi University (No. of consent form: 102080).

Series [7] is described as follows: toxicity test on normal SCID mice. It counts as in vivo. The conditions noted are these: 20 μg/g mouse intraperitoneal, 2-3 month, data not shown. The procedure: In comparison, the effect of c-Met inhibitor JNJ on tumor progression of HCC329 was not prominent (FIG. 4). The toxicity test of FIP-gts on SCID mice was also performed by treating 4 normal SCID mice without inoculation of HCC329.

Series [8] relates to p-JNK, p-ERK, p-AKT, p-EGFR in HCC329. The series is described as follows: immuno-blotting of signaling molecules, HCC329. It counts as cell-based, human. The source says:
To investigate the molecular mechanism of FIP-gts in suppression of tumor progression of HCCs, the effects of FIP-gts on the activity and/or quantity of the critical members present in c-Met dependent signaling pathway, including c-Met, phosphorylated c-Met (p-c-Met) and downstream effectors p-JNK and p-ERK, were examined in HCCs. […] Total proteins were harvested from the cells and subjected to immuno-blotting analysis using GAPDH as a loading control. Antibodies for p-c-Met, p-JNK, p-ERK and p-paxillin (S178), GAPDH and ERK were purchased from Santa Cruz Biotechnology (California, USA). The band intensities on the blots were quantified with Image J. Software. Relative band intensity of each molecule was calculated, taking the data of untreated HCC372 or HCC329 as 1.0.

In series [9] the test system is c-Met, p-c-Met, p-JNK, p-ERK, p-AKT in HCC372. As to the kind of experiment: immuno-blotting of c-Met dependent signaling, HCC372. The conditions noted are these: 2.0 μg/ml. The series is classed as cell-based, human. The procedure:
To investigate the molecular mechanism of FIP-gts in suppression of tumor progression of HCCs, the effects of FIP-gts on the activity and/or quantity of the critical members present in c-Met dependent signaling pathway, including c-Met, phosphorylated c-Met (p-c-Met) and downstream effectors p-JNK and p-ERK, were examined in HCCs. HCC329 and HCC372 cells were treated with FIP-gts (2 μg/ml) for 4 or 24 hours. Total proteins were harvested from the cells and subjected to immuno-blotting analysis using GAPDH as a loading control. Antibodies for p-c-Met, p-JNK, p-ERK and p-paxillin (S178), GAPDH and ERK were purchased from Santa Cruz Biotechnology (California, USA). The band intensities on the blots were quantified with Image J. Software. Relative band intensity of each molecule was calculated, taking the data of untreated HCC372 or HCC329 as 1.0. The results were shown in FIGS. 5A and 5B, in which (**) (##) and (*) (#) represent statistical significance (p<0.005 and p<0.05, respectively, n=3) between the indicated inhibitor-treated sample and untreated HCC329 or HCC372 control group.

Series [10] has as its system HGF-induced c-Met signaling in HepG2. The series is described as follows: immuno-blotting of HGF-induced c-Met signaling, HepG2. The series is classed as cell-based, human. Conditions: 2.0 μg/ml, 0.5 hour, HGF 25 nM. The procedure:
HepG2 cells were treated with FIP-gts (2.0 μg/ml) for 0.5 hour in the presence or absence of HGF (25 nM). Total proteins were harvested from the cells and immuno-blotting analysis was performed as described in Example 6, except using ERK as the loading control. The results were shown in FIGS. 5C and 5D, in which (**) represent statistical significance (p<0.005, n=3) between the indicated HGF/FIP-gts co-treated sample and the HGF alone group.

With “FIP-gts: fungal immunomodulatory protein of SEQ ID NO: 1 (Ganoderma tsugae), recombinantly expressed in Saccharomyces cerevisiae”, in series [1], the “increase of doubling time” value is on record as 25-46%. In addition, the “increase of doubling time” value in series [2] is 14-47%. The “suppression of cell migration” value in series [3] stood at 95%. Besides, the “suppression of cell migration” value in series [4] worked out at 80%. Also, the “prevention of HGF-induced cell migration” value in series [5] is on record as “much more effectively than JNJ”. Moreover, in series [6], the “secondary tumors on liver lobes (intra-hepatic metastasis)” value is “normal liver lobule structure”; the “tumor progression (primary tumor growth and intra-metastasis) of HCC329” value was “dramatically suppressed tumor progression”. Besides, the “adverse effects (activity of animals, integrity of organs)” value in [7] is listed as “no adverse effects was observed”. For the same substance, in series [8] (2.0 μg/ml, 24 hours), the “decrease of phosphorylation of AKT” value is reported as 18%, the “decrease of phosphorylation of ERK” value is 51% and the “decrease of phosphorylation of JNK” value is listed as 85%. Further, in series [8] (16 hours, versus untreated, data not shown), the “phosphorylated EGFR (p-EGFR) level” value is recorded as “remarkably reduced”. The “effect on p-JNK” value in series [9] is “didn't decrease p-JNK at all”. In series [9] (4th hour), the “suppression of expression of Met protein” value is given as 90-95%, the “suppression of phosphorylation of AKT” value was 80-95%, the “suppression of phosphorylation of ERK” value is listed as 80-95% and the “suppression of phosphorylation of Met (at Tyr1234)” value is listed as 55%. Further, in series [10], the “suppression of HGF-induced p-ERK” value is reported as 85-90%, the “suppression of HGF-induced p-JNK” value is listed as 85-90%, the “suppression of HGF-induced p-c-Met” value is reported as 85-90% and the “suppression of HGF-induced phosphorylated paxillin (at Ser 178)” value is 85-90%.
